According to patent US9579296B2, “Compositions and methods for transdermal delivery of hormones and other medicinal agents” (Teikoku Pharma USA, Inc., priority 2012, dated 2017):
Read-outs that look alike come from different tables or passages of the source.

Protocol: To assay transdermal flux of levonorgestrel and ethinyl estradiol across the skin barrier, traditional Franz diffusion cells were used. Human cadaver skin epidermis was used as the substrate throughout all flux experiments to mimic in vivo conditions.
Prior to beginning the diffusion experiment, human cadaver epidermis was separated from underlying dermal tissue by floating the skin sample on 60° C. water for 2 minutes, followed by gently pealing the epidermis away from the dermal tissue with a spatula. The resulting epidermal tissue is then cut into squares having an approximate size of 2 cm×2 cm. Patch samples were then prepared by die-cutting the patches with a ⅝″ punch and arbor press. The release liner of the punched sample was then removed and the patch sample was placed on top of the epidermis with the drug adhesive layer contacting the stratum corneum. Gentle pressure was applied to the patch sample to achieve good contact between the adhesive layer and the stratum corneum.
Franz diffusion cells were assembled by placing the epidermis-patch samples between the receptor and donor chambers of the diffusion cell and clamping the chambers together with a pinch clamp. The receptor chamber was filled with phosphate buffered saline solution at pH 7.4 with 0.2% (w/w) NaN3 added as a preservative and 2% (w/w) beta-hydroxypropylcylclodextrin added to ensure sink conditions of the receptor fluid throughout the experiment. In addition, a stir bar was added to each receptor chamber. Care was taken to ensure any air bubbles underneath the skin were removed prior to beginning the flux study. The assembled diffusion cells were then placed in a stirring dry bath heater. The receptor chambers were continually stirred throughout the experiment and the temperature maintained at 32° C. Samples were taken at regular intervals over a period seven of days with fresh receptor solution being used to replace the removed sample aliquot. Sample aliquots were analyzed via high performance liquid chromatography (HPLC) with a gradient method using water (with 0.01% (w/w) formic acid) and acetonitrile (with 0.006% (w/w) formic acid) as the mobile phases, an Eclipse Plus C8 column, and ultraviolet (UV) detection at 220 nm. Flux values were calculated from the slopes of cumulative amounts of the drug in the receptor compartment versus time.
(§1) Transdermal delivery systems for administration of levonorgesterel and ethinyl estradiol were prepared and tested as described in Example 1, except that the adhesive polymer matrix contained levulinic acid and/or glyceryl monooleate.
as §1, with “monooleate, and pharmaceutical grade PVP/VA S-630 (sold under the tradename Plasdone S-630 by International Specialty Products located at Wayne, N.J.) was used.” for “monooleate.”
Transdermal flux assays measuring the flux of levonorgestrel were performed as described in Example 1.

Compound | flux of levonorgestrel, result in words | flux of ethinyl estradiol, result in words | flux of ethinyl estradiol, result in words (Example 1, Formulations A-I) | flux of levonorgestrel, result in words (Example 1, Formulations A-I) | flux of levonorgestrel, result in words (Example 1, Formulations A-I, listed as Glyceryl monooleate)
CCCCCCCCCCCCOC(=O)C(C)O (stereo not shown) [lauryl lactate] | increase the flux of levonorgestrel relative to control Formulation T | – | – | – | –
CC(=O)CCC(=O)O [levulinic acid] | – | increase the flux of ethinyl estradiol relative to control Formulation A | – | – | –
CCCCCCCCCCCCCC(=O)OC(C)C [isopropyl myristate] | increase the flux of levonorgestrel relative to control Formulation A | increase the flux of ethinyl estradiol relative to control Formulation A | – | – | –
CCCCCCCC/C=C\CCCCCCCC(=O)OCC(O)CO (stereo not shown) [glyceryl monooleate] | – | – | increase the flux of ethinyl estradiol relative to control Formulation A | increase the flux of levonorgestrel relative to control Formulation A | larger increase in the flux of levonorgestrel than levulinic acid
